From patent US11723898B2, “Androgen receptor inhibitors for the treatment of non-metastatic castration-resistant prostate cancer in subjects with severe hepatic impairment” (Aragon Pharmaceuticals, Inc., priority 2019, dated 2023)

Experiments:
AR = AR (Homo sapiens, UniProt P10275); conditions: cited from earlier work
[1] = pharmacokinetic study data, subjects with mild and moderate hepatic impairment versus healthy controls; type: in vivo, human
[2] = test system: non-castrate hormone-sensitive and bicalutamide-resistant human prostate cancer xenograft models; conditions: cited from earlier work
T877A AR mutant = molecular target: T1, T877A AR mutant (Homo sapiens, UniProt P10275, T878A); conditions: cited from earlier work
T1 sequence (P10275 1-920 T878A): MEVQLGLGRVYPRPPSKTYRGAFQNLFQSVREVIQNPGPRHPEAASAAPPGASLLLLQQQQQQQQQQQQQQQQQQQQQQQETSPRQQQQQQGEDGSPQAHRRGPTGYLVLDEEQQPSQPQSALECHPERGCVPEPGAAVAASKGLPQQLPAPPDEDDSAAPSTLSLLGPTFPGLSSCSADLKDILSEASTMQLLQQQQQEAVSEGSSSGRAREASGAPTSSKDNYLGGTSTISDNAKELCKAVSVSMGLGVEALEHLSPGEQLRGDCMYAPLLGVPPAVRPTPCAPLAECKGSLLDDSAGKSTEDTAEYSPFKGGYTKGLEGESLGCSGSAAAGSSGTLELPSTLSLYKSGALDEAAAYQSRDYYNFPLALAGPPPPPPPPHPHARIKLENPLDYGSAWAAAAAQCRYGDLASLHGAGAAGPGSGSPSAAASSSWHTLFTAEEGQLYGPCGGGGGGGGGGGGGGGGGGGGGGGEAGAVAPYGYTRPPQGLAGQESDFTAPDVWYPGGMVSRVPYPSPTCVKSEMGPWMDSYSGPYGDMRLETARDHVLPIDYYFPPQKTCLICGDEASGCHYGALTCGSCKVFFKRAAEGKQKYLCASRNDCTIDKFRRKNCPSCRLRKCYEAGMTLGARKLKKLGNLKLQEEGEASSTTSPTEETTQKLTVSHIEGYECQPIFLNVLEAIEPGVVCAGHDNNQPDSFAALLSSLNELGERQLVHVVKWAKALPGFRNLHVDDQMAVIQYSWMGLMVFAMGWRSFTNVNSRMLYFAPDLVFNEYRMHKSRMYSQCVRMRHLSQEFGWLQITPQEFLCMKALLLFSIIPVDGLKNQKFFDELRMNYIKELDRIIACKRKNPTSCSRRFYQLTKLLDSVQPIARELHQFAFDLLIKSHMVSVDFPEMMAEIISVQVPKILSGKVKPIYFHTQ

Chain of AR (P10275 whole entry): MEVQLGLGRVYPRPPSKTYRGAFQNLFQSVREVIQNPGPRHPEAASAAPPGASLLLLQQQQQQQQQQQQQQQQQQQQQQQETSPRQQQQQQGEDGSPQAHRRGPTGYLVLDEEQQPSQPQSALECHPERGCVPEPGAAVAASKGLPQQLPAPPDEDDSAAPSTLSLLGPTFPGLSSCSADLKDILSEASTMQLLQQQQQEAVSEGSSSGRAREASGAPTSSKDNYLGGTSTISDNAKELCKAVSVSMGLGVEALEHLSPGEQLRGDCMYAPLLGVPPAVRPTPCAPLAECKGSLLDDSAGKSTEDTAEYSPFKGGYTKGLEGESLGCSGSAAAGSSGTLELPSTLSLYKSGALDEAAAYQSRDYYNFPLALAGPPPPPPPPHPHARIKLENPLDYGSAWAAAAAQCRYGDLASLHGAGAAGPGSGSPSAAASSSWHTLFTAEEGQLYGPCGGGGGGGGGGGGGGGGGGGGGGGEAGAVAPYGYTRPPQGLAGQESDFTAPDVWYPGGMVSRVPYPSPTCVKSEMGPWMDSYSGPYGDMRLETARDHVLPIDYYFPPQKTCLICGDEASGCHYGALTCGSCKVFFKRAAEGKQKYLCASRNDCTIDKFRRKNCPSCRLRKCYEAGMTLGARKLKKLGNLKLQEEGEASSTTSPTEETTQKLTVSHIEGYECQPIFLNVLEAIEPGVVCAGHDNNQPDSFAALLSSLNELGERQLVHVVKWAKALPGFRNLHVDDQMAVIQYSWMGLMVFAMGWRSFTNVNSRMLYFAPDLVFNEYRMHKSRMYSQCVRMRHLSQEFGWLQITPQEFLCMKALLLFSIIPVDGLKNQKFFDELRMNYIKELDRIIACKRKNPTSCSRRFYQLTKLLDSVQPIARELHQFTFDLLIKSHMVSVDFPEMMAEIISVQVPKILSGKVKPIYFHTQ

CC(O)c1cc(C(=O)N[C@@H](C)Cn2ccc(-c3ccc(C#N)c(Cl)c3)n2)n[nH]1 (stereo partly drawn) [Darolutamide, N-{(2S)-1-[3-(3-chloro-4-cyanophenyl)-1H-pyrazol-1-yl]propan-2-yl}-5-(1-hydroxyethyl)-1H-pyrazole-3-carboxamide]
binding affinity for AR (AR): high affinity

CNC(=O)c1ccc(N2C(=S)N(c3cnc(C#N)c(C(F)(F)F)c3)C(=O)C23CCC3)cc1F [apalutamide, 4-[7-(6-cyano-5-trifluoromethylpyridin-3-yl)-8-oxo-6-thioxo-5,7-diazaspiro[3.4]oct-5-yl]-2-fluoro-N-methylbenzamide]
total coefficient of variation (CV) for AUCs (AUClast and AUC∞) [1]: ≤ 27% | total coefficient of variation (CV) for Cmax [1]: ≤ 35% | tumor regression [2]: partial or complete tumor regression

CC(C)(O)C(=O)Nc1ccc([N+](=O)[O-])c(C(F)(F)F)c1 [hydroxyflutamide]
agonist activity (T877A AR mutant): act as AR agonists
